Measurements from BindingDB's records for doi:10.1016/s0960-894x(01)00248-7 (Smithkline Beecham Pharmaceuticals, 2001).
pIC50: −log10 of the molar value. “And” between values parts separate entries of the source, which are not always exact repeats. Equal values may be shown once.

Assay: Agonistic activity of the compound against C-C chemokine receptor type 3 by displacing Eotaxin radioligand,using Esonophil chemotaxis assay

COC(=O)[C@H](Cc1ccc([N+](=O)[O-])cc1)NC(=O)c1cccc2ccccc12 [(S)-2-[(Naphthalene-1-carbonyl)-amino]-3-(4-nitro-phenyl)-propionic acid methyl ester]
pIC50: 7.49 and 7.60
